What was measured:
Format in all cases: functional
[1] = system: Mus musculus; assay: Antihyperglycemic activity was determined in obese (ob/ob) mice by po administration at a dose of 10 mg/kg
[2] = system: Mus musculus; assay: Antihyperglycemic activity in obese mice(ob/ob) at 1 mg/kg peroral administration; conditions: route oral
[3] = system: Mus musculus; assay: Antihyperglycemic activity in obese mice(ob/ob) at 3 mg/kg peroral administration; conditions: route oral
[4] = system: Mus musculus; assay: In vivo decrease in triglyceride in obese mice(ob/ob) by 3 mg/kg/day peroral administration for 2 weeks; conditions: route oral
[5] = system: Mus musculus; assay: In vivo decrease in glucose in obese mice(ob/ob) at 10 mg/kg/day peroral administration for 2 weeks; conditions: route oral
[6] = system: Mus musculus; assay: In vivo decrease in glucose in obese mice(ob/ob) at 1 mg/kg/day peroral administration for 2 weeks; conditions: route oral
[7] = system: Mus musculus; assay: In vivo decrease in glucose in obese mice(ob/ob) at 3 mg/kg/day peroral administration for 2 weeks; conditions: route oral
[8] = system: Mus musculus; assay: In vivo decrease in insulin in obese mice(ob/ob) at 0.3 mg/kg/day peroral administration for 2 weeks; conditions: route oral
[9] = system: Mus musculus; assay: In vivo decrease in insulin in obese mice(ob/ob) at 10 mg/kg/day peroral administration for 2 weeks; conditions: route oral
[10] = system: Mus musculus; assay: In vivo decrease in insulin in obese mice(ob/ob) at 1 mg/kg/day peroral administration for 2 weeks; conditions: route oral
[11] = system: Mus musculus; assay: In vivo decrease in insulin in obese mice(ob/ob) at 3 mg/kg/day peroral administration for 2 weeks; conditions: route oral
[12] = system: Mus musculus; assay: In vivo decrease in triglyceride in obese mice(ob/ob) by 0.3 mg/kg/day peroral administration for 2 weeks; conditions: route oral
[13] = system: Mus musculus; assay: In vivo decrease in glucose in obese mice(ob/ob) by 10 mg/kg/day peroral administration for 2 weeks; conditions: route oral
[14] = system: Mus musculus; assay: In vivo decrease in glucose in obese mice(ob/ob) by 1 mg/kg/day peroral administration for 2 weeks; conditions: route oral
[15] = system: Mus musculus; assay: In vivo decrease in glucose in obese mice(ob/ob) by 0.3 mg/kg/day peroral administration for 2 weeks; conditions: route oral

## COc1ccc(CC2SC(=O)NC2=O)cc1C(=O)NCCc1ccc(C(F)(F)F)cc1 (configuration not stated)
[1]
  Decrease in blood glucose: 3%

## COc1ccc(C(=O)NCc2ccc(C(F)(F)F)cc2)cc1CC1SC(=O)NC1=O (configuration not stated)
[1]
  Decrease in blood glucose: 3%

## CC(C)Oc1ccc(CC2SC(=O)NC2=O)cc1C(=O)NCc1ccc(C(F)(F)F)cc1 (configuration not stated)
[1]
  Decrease in blood glucose: 45%

## COc1ccc(CC2SC(=O)NC2=O)cc1C(=O)NCc1cc(C(F)(F)F)cc(C(F)(F)F)c1 (configuration not stated)
[1]
  Decrease in blood glucose: 30%

## COc1ccc(C2SC(=O)NC2=O)cc1C(=O)NCc1ccc(C(F)(F)F)cc1 (configuration not stated)
[1]
  Decrease in blood glucose: 48%
[2]
  Decrease in blood glucose: 27%
[3]
  Decrease in blood glucose: 36%

## COc1ccc(CC2SC(=O)NC2=O)cc1C(=O)NCc1ccc(C(C)(C)C)cc1 (configuration not stated)
[1]
  Decrease in blood glucose: 5%

## O=C1NC(=O)C(Cc2ccc(O)c(C(=O)NCc3ccc(C(F)(F)F)cc3)c2)S1 (configuration not stated)
[1]
  Decrease in blood glucose: 34%
[2]
  Decrease in blood glucose: 7%
[3]
  Decrease in blood glucose: 12%

## COc1ccc(CC2SC(=O)NC2=O)cc1C(=O)NCc1ccc(N(C)C)cc1 (configuration not stated)
[1]
  Decrease in blood glucose: 12%

## CCOc1ccc(CC2SC(=O)NC2=O)cc1C(=O)NCc1ccc(C(F)(F)F)cc1 (configuration not stated)
[1]
  Decrease in blood glucose: 34%

## Cc1ccc(CC2SC(=O)NC2=O)cc1C(=O)NCc1ccc(C(F)(F)F)cc1 (configuration not stated)
[1]
  Decrease in blood glucose: 16%

## COc1ccc(CCC2SC(=O)NC2=O)cc1C(=O)NCc1ccc(C(F)(F)F)cc1 (configuration not stated)
[1]
  Decrease in blood glucose: 43%
[2]
  Decrease in blood glucose: 15%
[3]
  Decrease in blood glucose: 20%

## COc1ccc(CC2SC(=O)NC2=O)cc1C(=O)NCc1ccccc1C(F)(F)F (configuration not stated)
[1]
  Decrease in blood glucose: 4%

## COc1ccc(CC2SC(=O)NC2=O)cc1C(=O)NCc1ccc(F)cc1 (configuration not stated)
[1]
  Decrease in blood glucose: 28%

## COc1ccc(CC2SC(=O)NC2=O)cc1C(=O)NCc1ccccc1 (configuration not stated)
[1]
  Decrease in blood glucose: 37%
[2]
  Decrease in blood glucose: 19%
[3]
  Decrease in blood glucose: 31%

## COc1c(CC2SC(=O)NC2=O)cccc1C(=O)NCc1ccc(C(F)(F)F)cc1 (configuration not stated)
[1]
  Decrease in blood glucose: 0%

## COc1ccc(CC2SC(=O)NC2=O)cc1C(=O)NCc1ccc(C(F)(F)F)cc1 (configuration not stated)
[1]
  Decrease in blood glucose: 58%
[2]
  Decrease in blood glucose: 35%
[3]
  Decrease in blood glucose: 53%
[4]
  Rate of decrease: 122%
[5]
  Rate of decrease: 100%
[6]
  Rate of decrease: 78%
[7]
  Rate of decrease: 95%
[8]
  Rate of decrease: 55%
[9]
  Rate of decrease: 87%
[10]
  Rate of decrease: 59%
[11]
  Rate of decrease: 83%
[12]
  Rate of decrease: 67%
[13]
  Rate of decrease: 130%
[14]
  Rate of decrease: 80%
[15]
  Rate of decrease: 77%

## COc1ccc(CCCC2SC(=O)NC2=O)cc1C(=O)NCc1ccc(C(F)(F)F)cc1 (configuration not stated)
[1]
  Decrease in blood glucose: 39%
[2]
  Decrease in blood glucose: 10%
[3]
  Decrease in blood glucose: 29%

## COc1ccc(CC2SC(=O)NC2=O)cc1C(=O)NCc1ccc(OC(F)(F)F)cc1 (configuration not stated)
[1]
  Decrease in blood glucose: 34%

## O=C1NC(=O)C(Cc2ccc(F)c(C(=O)NCc3ccc(C(F)(F)F)cc3)c2)S1 (configuration not stated)
[1]
  Decrease in blood glucose: 50%

## COc1ccc(CC2SC(=O)NC2=O)cc1C(=O)NCc1cccc(C(F)(F)F)c1 (configuration not stated)
[1]
  Decrease in blood glucose: 41%

## COc1ccc(CNC(=O)c2cc(CC3SC(=O)NC3=O)ccc2OC)cc1OC (configuration not stated)
[1]
  Decrease in blood glucose: 30%

## COc1ccc(CC2SC(=O)NC2=O)cc1C(=O)Nc1ccc(C(C)(C)C)cc1 (configuration not stated)
[1]
  Decrease in blood glucose: 17%

## COc1ccc(CNC(=O)c2cc(CC3SC(=O)NC3=O)ccc2OC)cc1 (configuration not stated)
[1]
  Decrease in blood glucose: 21%

## COc1ccc(CC2SC(=O)NC2=O)cc1C(=O)NCc1ccc(C)cc1 (configuration not stated)
[1]
  Decrease in blood glucose: 30%

## CCN(Cc1ccc(C(F)(F)F)cc1)C(=O)c1cc(CC2SC(=O)NC2=O)ccc1OC (configuration not stated)
[1]
  Decrease in blood glucose: 31%

## CCc1ccc(CCOc2ccc(CC3SC(=O)NC3=O)cc2)nc1 (configuration not stated) [PIOGLITAZONE]
[1]
  Decrease in blood glucose: 14%
[4]
  Rate of decrease: 85%
[5]
  Rate of decrease: 75%
[7]
  Rate of decrease: 64%
[9]
  Rate of decrease: 41%
[11]
  Rate of decrease: 43%
[13]
  Rate of decrease: 99%

## Cc1c(C)c2c(c(C)c1O)CCC(C)(COc1ccc(CC3SC(=O)NC3=O)cc1)O2 (configuration not stated) [TROGLITAZONE]
[1]
  Decrease in blood glucose: 9%

— ChEMBL document CHEMBL1131942, “(3-substituted benzyl)thiazolidine-2,4-diones as structurally new antihyperglycemic agents” (Bioorg Med Chem Lett, 1999)
